According to EP1505089B1, “Cationic (alkyl)acrylamide derivative, polymer based on these derivates, and transfection system comprising said polymer” (OctoPlus Technologies B.V., priority 2003, dated 2005):

Assay: Degradation of the monomer followed with RP-HPLC
Format: physicochemical
Conditions: 37 °C
Procedure: Degradation of the monomer was followed with RP-HPLC at 37 °C. The relative peak areas of the monomer and its degradation product HPMA as a function of time are depicted in figure 1(A) for pH 10, 1(B) for pH 7.4 and 1(C) for pH 5.0.

C=C(C)C(=O)NCC(C)OC(=O)OCCN(C)C (stereo not drawn) [HPMA-DMAE]
half-life of the monomer (pH 5.0, RP-HPLC): 380 h | half-life of the monomer (pH 7.4, RP-HPLC): 9.6 h | half-life of the monomer (pH 10, RP-HPLC): 1.1 h
